The values below come from PMC9822352, “Design, Synthesis and Evaluation of New Multifunctional Benzothiazoles as Photoprotective, Antioxidant and Antiproliferative Agents” (Molecules, 2022).

Data set [1] is described as follows: FRAP (Ferric Reducing Antioxidant Power) assay. To be noted: Trolox standard, 37 °C 10 min, 593 nm; mean ± SEM. An excerpt: The FRAP (Ferric Reducing Antioxidant Power) test allows the measurement of the ability of antioxidants to reduce ferric ion to ferrous. This method represents one of the simplest, quickest and least expensive methods for the determination of reducing properties on oxidized species in vitro.
The FRAP test (Ferric Reducing Antioxidant Power) is based on a colorimetric reaction and evaluates the ability of a sample of reducing ferric ions to ferrous ion while complexed with TPTZ (2,4,6-trispyridil-s-triazine). The FRAP solution was prepared from 0.1 M acetate buffer (pH 3.6), 10 mmol/L of TPTZ in 40 mM HCl, and 20 mM solution of FeCl3, with a 10:1:1 ratio, as described. Then, 1.9 mL of this solution was incubated with 0.1 mL of the sample solution at 37 °C for 10 min. The absorbance was read with a UV-Vis spectrophotometer at a 593 nm wavelength, relative to the maximum peak of absorbance of Fe^2+-TPTZ complex. Trolox® was used as a standard and the results are expressed as µmolTE/g.

Data set [2] is described as follows: In vitro filtering parameters of O/W sunscreen formulation containing 3% compound (modified Diffey-Robson, PMMA plates). The following applies: 3% in formulation, before irradiation. From the text:
All synthesized compounds were formulated at 3% and their photoprotective efficacy, determined by spectrophotometric measurements using the modified Diffey-Robson method, was compared with that of the lead compound PBSA (used at 3% in the same formulation) and using the base without active as a control (Table 2).
The synthesized compounds were incorporated at a concentration of 3% in a typical oil-in-water sunscreen formulation, to evaluate the filtering parameters, and have the following ingredient composition:
INCI (International Nomenclature Cosmetic Ingredients): aqua, glycerin, Euxyl PE 9010, xanthan gum, Tribehenin PEG-20 Esters, cetearyl alcohol, dicaprylyl carbonate, PPG-26-Buteth-26 (and) PEG-40 Hydrogenated Castor Oil (and) water, C12-C15 Alkyl Benzoate, and Sodium hydroxide (sol. 10%).
As previously reported the protocol indicates to spread 32.5 mg of each formulation on 25 cm^2 PMMA plates with the fingers. Each formulation was tested in triplicate, and five measurements were recorded for each dish, following a 15–30 min incubation in the dark at room temperature. UV transmittance data was recorded using a UV-VIS spectrophotometer in the range 290–400 nm. The blank plate, SPF, UVA-PF and critical wavelength were obtained by SPF Calculator software (version 2.1), Shimadzu, Milan, Italy).

Data set [3] can be described thus: Photostability study of 3% formulation (post-irradiation filtering parameters). To be noted: 3% in formulation, post irradiation. An excerpt: To outline the efficacy and safety profile of a sunscreen formulation, it is essential to provide data relating to photostability. It is possible to provide photodegradation data by recording, pre- and post-irradiation, the transmittance of PMMA plates with finger-coat formulations subjected to a dose of UVA capable of causing erythema, according to the criteria of Garoli et al.. By means of Equations (2) and (3) it was possible to evaluate the residual percentage of SPF in vitro and of UVA-PF for all the prepared formulations. Of greatest interest are the values obtained for the derivatives BZTcin2 and BZTcin4.
To determine the photostability, the previously reported method was adopted, which consists in preparing each plate as mentioned above and subjecting it to solar irradiation quantified as the minimum dose of UVA equivalent to an effective radiant exposure of erythema. The protocol stipulates that, before and after exposure to sunlight, the transmission of the sun protection layer in the range of 290–400 nm is recorded.
Using Equations (2) and (3) below, the residual percentage of SPF in vitro (% SPFeff.) and UVA-PF (% UVA-PFeff.) have been obtained, which, if greater than or equal to 80, can classify a filter as photostable. %SPFeff. = in vitro SPFafter/in vitro SPFbefore × 100(2) %UVA − PFeff. = UVA − PFafter/UVA − PFbefore × 100(3)

Data set [4] can be described thus: UV spectra in solution (MeOH-DMSO): λmax and molar extinction coefficient. Format: physicochemical. To be noted: for ε (molar extinction coefficient): at λmax, Lambert-Beer equation, in M-1 cm-1 (unit assumed); for λmax: solution in MeOH-DMSO, 290–400 nm. The protocol:
We next investigated the protective potential against UV radiation of each compound. Specifically, in vitro tests were conducted to determine the parameters related to absorption in the UV spectrum and those fundamental to the relative evaluation of the filtering potential and thus candidature as possible UV sunscreen ingredients of the candidates under examination, including λ critical and SPF (sun protection factor). Since the SPF is correlated to the UV quantitative absorption of the substances, the wavelength of maximum absorption (λmax) and the molar extinction coefficient (ε) of the derivatives in solution (MeOH-DMSO) were evaluated (Figures S1 and S2, Supplementary Materials). The UV spectra of the compounds BZTidr1–6 and BZTcin1–5 were recorded in the UVA-UVB range (290–400 nm) to evaluate their profile and compare it to that of the PBSA, a commercial UVB filter that has a λmax of 302 nm. After this peak, the absorbance of PBSA drops, reaching almost zero in the 325 nm range, and thus not providing absorption in the UVA region.
Once the λmax of each derivative was established, the molar extinction coefficient ε was calculated by applying the Lambert-Beer equation (Table S1, Supplementary Materials): the higher this value, the greater the ability of the compound under examination to absorb UV radiation. […] The excellent values of BZTidr1, BZTidr2 and BZTidr3 are ascribed to the aforementioned hyperchromic shift. In regard to the BZTcin1–5 series, the molar extinction coefficients calculated were very high, and the best values were those of BZTcin1, BZTcin2 and BZTcin3, also attributable to the hyperchromic shift of the absorption spectra. For both series, the excellent absorption capacity of ultraviolet radiation can be traced back to the high π-type conjugation that characterizes them.

Data set [5] is described as follows: DPPH radical scavenging test. The following applies: compound at 1 mg/mL, 30 min, 517 nm; mean ± SEM. The protocol:
The DPPH assay is widely used, and the simplest and fastest in vitro method for evaluating the antioxidant power of extracts or isolated compounds; it is based on the depletion of the 2,2-diphenyl-1-picrylhydrazyl radical (DPPH˙) by an antioxidant molecule with scavenger activity. This is an extremely sensitive test that can detect the activity of active ingredients present in very low concentrations.
The procedure used was adapted from Wang et al.. Briefly, 0.750 mL of a methanolic solution of each tested compound was treated with 1.5 mL of DPPH solution (0.004%) in MeOH. Samples were stored in the dark at room temperature for 30 min, and the absorbance value was read with a spectrophotometer at 517 nm, which is the maximum peak of absorbance relative to the DPPH radical absorption spectra. The values obtained were fitted into Equation (1) and converted to inhibition percentage (%) of the radical:DPPH inhibition percentage (%) = 100 × [1 − A1/A0](1) where A1 and A0 were, respectively, the absorbance recorded with and without the sample, which are directly proportional to DPPH residual concentration in the sample and DPPH concentration in the control (0.750 of MeOH and 1.5 mL of DPPH solution). […] A linear regression was performed to calculate the sample concentration able to eliminate 50% of DPPH free radicals.

For the next data set, the system named is HaCat keratinocytes. Description: Cell growth inhibition assay, HaCat. The format is cell-based, human. The following applies: Homo sapiens, HaCaT; 24 h incubation, cell count. The protocol:
(§1) All synthesized compounds were tested in order to evaluate their in vitro antiproliferative activity. The human melanoma Colo-38 cell line was selected as a tumor skin model, while the immortalized human HaCaT keratinocytes were chosen as a control for the evaluation of the cytotoxicity towards non-cancerous cells and of the selectivity towards tumor cell lines. […] The selectivity index (SI) was also calculated and is the ratio between the IC50 of a given compound towards the non-cancerous cell line and the IC50 of the same compound towards the tumor cell line.
(§2) Cell growth inhibition assays were carried out using human melanoma Colo-38 cells and skin HaCat keratinocytes cells. Human melanoma Colo-38 cells were kindly provided by Dr. Patrizio Giacomini (Laboratory of Immunology, Regina Elena Institute, Rome, Italy). HaCat cells were kindly provided by Istituto Zooprofilattico Sperimentale della Lombardia e dell’Emilia Romagna, Brescia, Italy. Cell lines were seeded using concentrations of 40,000 cells/mL and 25,000 cells/mL, respectively. Colo-38 cells were maintained in RPMI 1640, supplemented with 10% fetal bovine serum (FBS), penicillin (100 Units mL^−1), and streptomycin (100 µg mL^−1). HaCat cells were maintained in DMEM, supplemented with 10% fetal bovine serum (FBS), penicillin (100 Units mL^−1), streptomycin (100 µg mL^−1) and glutamine (2 mM); the incubation was performed at 37 °C in a 5% CO2 atmosphere. Tested compounds were dissolved in MeOH/DMSO (1:1) to obtain 50 mM stock solutions and diluted before cell treatment in MeOH 100%. The tested compounds were added at serial dilutions to the cell cultures (from 0.1 to 100 µM) and incubated for 24 h further. Cells were then harvested, suspended in physiological solution, and counted with a Z2 Coulter Counter (Coulter Electronics, Hialeah, FL, USA). The cell number/mL and the IC50 values were determined when untreated cells were in the log phase of cell growth. Cells treated with vehicles and untreated cells were placed in each plate.

A further data set concerns melanoma Colo-38 cells. Description: Cell growth inhibition assay, Colo-38. The format is cell-based, human. To be noted: Homo sapiens; 24 h incubation, cell count. The protocol:
as §1, §2

Bounds are passed on as bounds.

`O=C(N/N=C/c1ccccc1)c1nc2ccccc2s1` [BZTidr1, (E)-N′-benzylidenebenzo[d]thiazole-2-carbohydrazide] returned a melting point of 227 to 230 °C. This molecule came in with an FRAP in data set [1] of 282.16 ± 15.03 µmolTE/g. In data set [2], the SPF was determined as 1.48, the UVA/UVB is recorded as 1.00, the UVAPF0 is on record as 1.37 and the λc is reported as 374 nm. In data set [3], this molecule showed an SPF of 1.42, a UVA/UVB of 1.00, a UVAPF of 1.42 and a λc of 372 nm. In data set [4], the “ε (molar extinction coefficient)” value is 33223.32 and the λmax stood at 319.4 nm. In addition, the “DPPH (% Inhibition)” value in data set [5] was 10.95 ± 0.12%.

The molecule `COc1ccc(/C=N/NC(=O)c2nc3ccccc3s2)cc1` [BZTidr3, (E)-N′-(4-methoxybenzylidene)benzo[d]thiazole-2-carbohydrazide] registered a melting point of 208 to 215 °C. In data set [1], this molecule gave an FRAP of 273.99 ± 10.12 µmolTE/g. In data set [2], this molecule registered an SPF of 1.31, a UVA/UVB of 1.11, a UVAPF0 of 1.44 and a λc of 387 nm. In data set [3], this molecule gave an SPF of 1.31, a UVA/UVB of 1.11, a UVAPF of 1.41 and a λc of 387 nm. Besides, in data set [4], the “ε (molar extinction coefficient)” value is recorded as 29641.85 and the λmax was determined as 333.1 nm. Besides, in data set [5], the “DPPH (% Inhibition)” value was 24.25 ± 1.38%.

As to `O=C(N/N=C/c1ccc(O)c(O)c1)c1nc2ccccc2s1` [BZTidr4, (E)-N′-(3,4-dihydroxybenzylidene)benzo[d]thiazole-2-carbohydrazide], the melting point was greater than 280 °C. Moreover, the IC50 in the data set with HaCat keratinocytes was greater than 100 µM. Moreover, in data set [2], the SPF is listed as 1.53, the UVA/UVB is 1.05, the UVAPF0 turned out to be 1.65 and the λc stood at 389 nm. Besides, in data set [3], the SPF is 1.63, the UVA/UVB is listed as 1.05, the UVAPF worked out at 1.64 and the λc was found to be 389 nm. In addition, the IC50 in the data set with melanoma Colo-38 cells came to 92.9 ± 1.62 µM. In addition, in data set [4], the “ε (molar extinction coefficient)” value amounted to 22183.99 and the λmax turned out to be 346.2 nm. In addition, in data set [5], the “DPPH (% Inhibition)” value is listed as greater than 90.00%.
